Assay results: the supplement of paper PMC10307832

Assays:
Test in all cases: relative viability (nuclei count vs DMSO), 5 days (fraction); higher = more cells survive
Bemcentinib + Bortezomib = compound: Nc1nc(Nc2ccc3c(c2)CC[C@@H](N2CCCC2)CC3)nn1-c1cc2c(nn1)-c1ccccc1CCC2 [Bemcentinib] + CC(C)C[C@H](NC(=O)[C@H](Cc1ccccc1)NC(=O)c1cnccn1)B(O)O [Bortezomib] (partner 0.002 µM)
In short: (§1)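 Lung cancer cell lines in 1536-well plates got either a single drug or a fixed anchor-drug dose together with five library-drug doses (not always all listed) in √10 steps, by pin tool, on the day after seeding. Nuclei were counted after 5 days, and relative viability is the treated-to-vehicle ratio of nuclei counts. Values are medians of duplicate plates.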

Bemcentinib + Pictilisib = compound: Nc1nc(Nc2ccc3c(c2)CC[C@@H](N2CCCC2)CC3)nn1-c1cc2c(nn1)-c1ccccc1CCC2 [Bemcentinib] + CS(=O)(=O)N1CCN(Cc2cc3nc(-c4cccc5[nH]ncc45)nc(N4CCOCC4)c3s2)CC1 [Pictilisib] (partner 1 µM)
In short: as §1

[1] = compound: CC1=CC=C(C=C1)C(=O)CN2C3=C(CCCC3)SC2=N [Pifithrin_alpha] + Cc1cc(Nc2cc(N3CCN(C)CC3)nc(Sc3ccc(NC(=O)C4CC4)cc3)n2)n[nH]1 [Tozasertib] (partner 0.1 µM)
In short: as §1

Bemcentinib + Olaparib = compound: Nc1nc(Nc2ccc3c(c2)CC[C@@H](N2CCCC2)CC3)nn1-c1cc2c(nn1)-c1ccccc1CCC2 [Bemcentinib] + O=C(c1cc(Cc2n[nH]c(=O)c3ccccc23)ccc1F)N1CCN(C(=O)C2CC2)CC1 [Olaparib] (partner 8 µM)
In short: as §1

Row | Cell Line | relative viability (Bemcentinib + Bortezomib; first compound 0.04 µM) | relative viability (Bemcentinib + Bortezomib; first compound 0.1265 µM) | relative viability (Bemcentinib + Bortezomib; first compound 0.4 µM) | relative viability (Bemcentinib + Bortezomib; first compound 1.265 µM) | relative viability (Bemcentinib + Bortezomib; first compound 4 µM) | relative viability (Bemcentinib + Pictilisib; first compound 0.04 µM) | relative viability (Bemcentinib + Pictilisib; first compound 0.1265 µM) | relative viability (Bemcentinib + Pictilisib; first compound 0.4 µM) | relative viability (Bemcentinib + Pictilisib; first compound 1.265 µM) | relative viability (Bemcentinib + Pictilisib; first compound 4 µM) | relative viability ([1]; first compound 1 µM) | relative viability ([1]; first compound 3.162 µM) | relative viability ([1]; first compound 10 µM) | relative viability ([1]; first compound 31.62 µM) | relative viability ([1]; first compound 100 µM) | relative viability (Bemcentinib + Olaparib; first compound 0.04 µM) | relative viability (Bemcentinib + Olaparib; first compound 0.1265 µM) | relative viability (Bemcentinib + Olaparib; first compound 0.4 µM) | relative viability (Bemcentinib + Olaparib; first compound 1.265 µM) | relative viability (Bemcentinib + Olaparib; first compound 4 µM)
1 | ChaGo-K-1 | 0.905 | 1.1 | 0.98 | 0.804 | 0.766 | 0.579 | 0.733 | 0.795 | 0.426 | 0.434 | 0.218 | 0.219 | 0.204 | 0.226 | 0.192 | 0.403 | 0.371 | 0.467 | 0.438 | 0.423
2 | H3255 | 0.648 | 0.863 | 0.767 | 0.803 | 0.715 | 0.463 | 0.488 | 0.448 | 0.465 | 0.557 | 0.642 | 0.896 | 0.574 | 0.572 | 0.708 | 0.533 | 0.589 | 0.537 | 0.599 | 0.491
3 | LOU-NH91 | 0.429 | 0.503 | 0.493 | 0.487 | 0.407 | 0.498 | 0.526 | 0.556 | 0.524 | 0.483 | 0.663 | 0.612 | 0.637 | 0.543 | 0.578 | 0.886 | 0.848 | 0.942 | 0.927 | 0.937
4 | EPLC-272H | – | 1 | 0.91 | 0.79 | 0.876 | – | 0.356 | 0.343 | 0.294 | 0.316 | 0.255 | 0.13 | 0.169 | 0.202 | 0.292 | 0.753 | 1.02 | 0.975 | 0.833 | 0.761
5 | NCI-H441 | 0.923 | 0.689 | 0.455 | 0.407 | 0.507 | 0.572 | 0.53 | 0.575 | 0.509 | 0.399 | 0.483 | 0.652 | 0.401 | – | 0.451 | 0.606 | 0.665 | 0.53 | 0.537 | 0.402
6 | NCI-H23 | 1.16 | 1.14 | 1.01 | 1.17 | 1.14 | 0.443 | 0.503 | 0.541 | 0.453 | 0.476 | 0.304 | 0.299 | 0.316 | – | 0.258 | 0.246 | 0.338 | 0.381 | 0.308 | 0.298
7 | NCI-H647 | 1.18 | 1.14 | 1.24 | 0.811 | 1.11 | 0.385 | 0.602 | 0.427 | 0.455 | 0.363 | 0.339 | 0.382 | 0.288 | 0.188 | 0.145 | 0.479 | 0.666 | 0.698 | 0.602 | 0.624
8 | LXF-289 | 1.02 | 1.06 | 1.03 | 1.06 | 1.07 | 0.871 | 0.854 | 0.814 | 0.79 | 0.844 | 0.209 | 0.172 | 0.174 | 0.147 | 0.14 | 1.13 | 1.16 | 1.13 | 1.06 | 1.04
9 | NCI-H596 | 0.897 | 1.23 | 1.08 | 1.1 | 1.03 | 0.374 | 0.443 | 0.379 | 0.421 | 0.403 | 0.79 | 0.871 | 0.977 | 0.705 | 0.915 | 0.605 | 0.749 | 0.759 | 0.613 | 0.773
